One data set concerns sugar cane. The experiment in a line: Pot test, herbicide sprayed on the soil surface after planting one-node stem cuttings: phytotoxicity. The settings on record: Example 5; cuttings treated with strobilurin fungicides (kresoxim-methyl, azoxystrobin etc.); soil surface spray on day of planting; four weeks after application. On the procedure:
(§1) Stem cuttings of sugar cane, 30 cm to 40 cm long, are placed in wet soil to stimulate germination. Stem cuttings on which a bud grows to about 1 cm long are selected and the stem cuttings are cut to have one node and a length of 3 cm. Plastic pots are filled with soil and Amaranthus retroflexus is seeded therein. The stem cuttings of sugar cane are planted in the soil in the pots at a depth of 2 cm. […] The test pots are then placed in a greenhouse.
(§2) The herbicidal efficacy and phytotoxicity are determined four weeks after the application of the herbicides.
as §1, with “3 cm. The stem cuttings are treated with clothianidin, thiamethoxam, imidacloprid, dinotefuran, nitenpyram, acetamiprid, or thiacloprid. Plastic pots” for “3 cm. Plastic pots”, “sugar cane treated with the pesticides are planted” for “sugar cane are planted”
(§3) Stem cuttings of sugar cane, 30 cm to 40 cm long, are placed in wet soil to stimulate germination. Stem cuttings on which a bud grows to about 1 cm long are selected and the stem cuttings are cut to have one node and a length of 3 cm. The stem cuttings are treated with kresoxim-methyl, azoxystrobin, trifloxystrobin, fluoxastrobin, picoxystrobin, pyraclostrobin, dimoxystrobin, pyribencarb, metominostrobin, orysastrobin, enestrobin, pyraoxystrobin, or pyrametostrobin. Plastic pots are filled with soil and Amaranthus retroflexus is seeded therein. The stem cuttings of sugar cane treated with the fungicides are planted in the soil in the pots at a depth of 2 cm. […] The test pots are then placed in a greenhouse. The herbicidal efficacy and phytotoxicity are determined four weeks after the application of the herbicides.
(§4) Stem cuttings of sugar cane, 30 cm to 40 cm long, are placed in wet soil to stimulate germination. Stem cuttings on which a bud grows to about 1 cm long are selected and the stem cuttings are cut to have one node and a length of 3 cm. The stem cuttings are treated with azaconazole, bitertanol, bromuconazole, cyproconazole, difenoconazole, diniconazole, epoxiconazole, fenbuconazole, fluquinoconazole, flusilazole, flutriafol, hexaconazole, imibenconazole, ipconazole, metconazole, myclobutanil, penconazole, propiconazole, prothioconazole, simeconazole, tebuconazole, tetraconazole, triadimenol, triticonazole, fenarimol, nuarimol, pyrifenox, imazalil, oxpoconazole fumarate, peforazoate, prochloraz, or triflumizole. Plastic pots are filled with soil and Amaranthus retroflexus is seeded therein. The stem cuttings of sugar cane treated with the fungicides are planted in the soil in the pots at a depth of 2 cm. […] The test pots are then placed in a greenhouse.
(§5) Stem cuttings of sugar cane, 30 cm to 40 cm long, are placed in wet soil to stimulate germination. Stem cuttings on which a bud grows to about 1 cm long are selected and the stem cuttings are cut to have one node and a length of 3 cm. The stem cuttings are treated with metalaxyl or metalaxyl-M. Plastic pots are filled with soil and Amaranthus retroflexus is seeded therein. The stem cuttings of sugar cane are planted in the soil in the pots at a depth of 2 cm. […] The test pots are then placed in a greenhouse.
Consider `CCc1cccc(C)c1N(C(=O)CCl)[C@@H](C)COC` [S-metolachlor], for which the phytotoxicity result is “no phytotoxicity problematic to sugar cane is observed”.
Still for that read-out and setting: as for `CCc1cccc(CC)c1N(COC)C(=O)CCl` [alachlor], the entry is “no phytotoxicity problematic to sugar cane is observed”; as for `CC(C)c1nn(C(=O)NC(C)(C)C)c(=O)n1N` [amicarbazone], “no phytotoxicity problematic to sugar cane is observed”.
Still for that read-out and setting: as for `CCNc1nc(Cl)nc(NC(C)C)n1` [atrazine], the entry is “no phytotoxicity problematic to sugar cane is observed”.
Still for that read-out and setting: next, `COc1c(Cl)ccc(Cl)c1C(=O)O.NCCOCCO` [dicamba-diglycolamine]: “no phytotoxicity problematic to sugar cane is observed”.
Turning to `CNC.COc1c(Cl)ccc(Cl)c1C(=O)O` [dicamba-dimethylamine], the phytotoxicity entry is recorded as “no phytotoxicity problematic to sugar cane is observed”.
On the same count and under the same terms, next, `COc1c(Cl)ccc(Cl)c1C(=O)[O-].[K+]` [dicamba-potassium]: “no phytotoxicity problematic to sugar cane is observed”; `COc1c(Cl)ccc(Cl)c1C(=O)[O-].[Na+]` [dicamba-sodium]: “no phytotoxicity problematic to sugar cane is observed”.
Take `COc1c(Cl)ccc(Cl)c1C(=O)O` [dicamba]: the phytotoxicity entry is given as “no phytotoxicity problematic to sugar cane is observed”.
Take `CN(C)C(=O)Nc1ccc(Cl)c(Cl)c1` [diuron]: the phytotoxicity entry is given as “no phytotoxicity problematic to sugar cane is observed”.
On the same count and under the same terms, next, `COC(=O)c1c(Cl)nn(C)c1S(=O)(=O)NC(=O)Nc1nc(OC)cc(OC)n1` [halosulfuron-methyl]: “no phytotoxicity problematic to sugar cane is observed”; `COC(=O)c1ccc(I)cc1S(=O)(=O)[N-]C(=O)Nc1nc(C)nc(OC)n1.[Na+]` [iodosulfuron-methyl-sodium]: “no phytotoxicity problematic to sugar cane is observed”.
The same measure, in the same setting: next, `CS(=O)(=O)c1ccc(C(=O)C2C(=O)CCCC2=O)c([N+](=O)[O-])c1` [mesotrione]: “no phytotoxicity problematic to sugar cane is observed”; `CCc1cccc(C)c1N(C(=O)CCl)C(C)COC` (centres unmarked) [metolachlor]: “no phytotoxicity problematic to sugar cane is observed”; `CSc1nnc(C(C)(C)C)c(=O)n1N` [metribuzin]: “no phytotoxicity problematic to sugar cane is observed”.
The same measure, in the same setting: next, `CCC(CC)Nc1c([N+](=O)[O-])cc(C)c(C)c1[N+](=O)[O-]` [pendimethalin]: “no phytotoxicity problematic to sugar cane is observed”; `CCNc1nc(Cl)nc(NCC)n1` [simazine]: “no phytotoxicity problematic to sugar cane is observed”; `CNC(=O)N(C)c1nnc(C(C)(C)C)s1` [tebuthiuron]: “no phytotoxicity problematic to sugar cane is observed”.
Turning to `COc1cc(OC)nc(NC(=O)[N-]S(=O)(=O)c2ncccc2OCC(F)(F)F)n1.[Na+]` [trifloxysulfuron-sodium], the phytotoxicity entry is “no phytotoxicity problematic to sugar cane is observed”.
Same read-out and setting: as for `CCCN(CCC)c1c([N+](=O)[O-])cc(C(F)(F)F)cc1[N+](=O)[O-]` [trifluralin], the entry is “no phytotoxicity problematic to sugar cane is observed”; as for bicyclopyrone, “no phytotoxicity problematic to sugar cane is observed”.

Still in this data set, the particulars now being: in vivo.
In the case of `CCNc1nc(NC(C)C)nc(SC)n1` [ametryn], the phytotoxicity result is on record as “no phytotoxicity problematic to sugar cane is observed”.
On the same count and under the same terms, next, `CCOc1ccccc1OS(=O)(=O)NC(=O)Nc1nc(OC)cc(OC)n1` [ethoxysulfuron]: “no phytotoxicity problematic to sugar cane is observed”.
Still for that read-out and setting: next, `CN(C)c1nc(=O)n(C2CCCCC2)c(=O)n1C` [hexazinone]: “no phytotoxicity problematic to sugar cane is observed”; `Cc1cnc(C2=NC(=O)C(C)(C(C)C)N2)c(C(=O)O)c1` (centres unmarked) [imazapic]: “no phytotoxicity problematic to sugar cane is observed”.
On to `CS(=O)(=O)c1cc(C(F)(F)F)ccc1C(=O)c1cnoc1C1CC1` [isoxaflutole], for which the phytotoxicity result was “no phytotoxicity problematic to sugar cane is observed”.

The next data set has as its system Amaranthus retroflexus. The experiment in a line: Pot test, herbicide sprayed on the soil surface after planting one-node stem cuttings: herbicidal efficacy. The format is in vivo. Particulars: Example 5; cuttings treated with strobilurin fungicides (kresoxim-methyl, azoxystrobin etc.); soil surface spray on day of planting; four weeks after application. On the procedure:
as §1, §2
as §5, with “treated with clothianidin, thiamethoxam, imidacloprid, dinotefuran, nitenpyram, acetamiprid, or thiacloprid.” for “treated with metalaxyl or metalaxyl-M.”, “acetamiprid, or thiacloprid. Plastic pots” for “metalaxyl or metalaxyl-M. Plastic pots”, “sugar cane treated with the pesticides are planted” for “sugar cane are planted”
as §3
as §4, with “greenhouse. […]” for “greenhouse.”
Take `CCc1cccc(C)c1N(C(=O)CCl)[C@@H](C)COC` [S-metolachlor]: the herbicidal efficacy entry is “the control effect against the weed can be observed”.
For the compound `CCc1cccc(CC)c1N(COC)C(=O)CCl` [alachlor], the herbicidal efficacy entry is “the control effect against the weed can be observed”.
Same read-out and setting: as for `CCNc1nc(NC(C)C)nc(SC)n1` [ametryn], the entry is “the control effect against the weed can be observed”; as for `CC(C)c1nn(C(=O)NC(C)(C)C)c(=O)n1N` [amicarbazone], “the control effect against the weed can be observed”.
Still for that read-out and setting: next, `CCNc1nc(Cl)nc(NC(C)C)n1` [atrazine]: “the control effect against the weed can be observed”.
The same measure, in the same setting: next, `CC1(C)CON(Cc2ccccc2Cl)C1=O` [clomazon]: “the control effect against the weed can be observed”; `COc1c(Cl)ccc(Cl)c1C(=O)O.NCCOCCO` [dicamba-diglycolamine]: “the control effect against the weed can be observed”; `CNC.COc1c(Cl)ccc(Cl)c1C(=O)O` [dicamba-dimethylamine]: “the control effect against the weed can be observed”.
As for `COc1c(Cl)ccc(Cl)c1C(=O)[O-].[K+]` [dicamba-potassium], the herbicidal efficacy result is on record as “the control effect against the weed can be observed”.
The same measure, in the same setting: next, `COc1c(Cl)ccc(Cl)c1C(=O)[O-].[Na+]` [dicamba-sodium]: “the control effect against the weed can be observed”.
On the same count and under the same terms, as for `COc1c(Cl)ccc(Cl)c1C(=O)O` [dicamba], the entry is “the control effect against the weed can be observed”; as for `CN(C)C(=O)Nc1ccc(Cl)c(Cl)c1` [diuron], “the control effect against the weed can be observed”; as for `CCOc1ccccc1OS(=O)(=O)NC(=O)Nc1nc(OC)cc(OC)n1` [ethoxysulfuron], “the control effect against the weed can be observed”.
Same read-out and setting: next, `COC(=O)c1c(Cl)nn(C)c1S(=O)(=O)NC(=O)Nc1nc(OC)cc(OC)n1` [halosulfuron-methyl]: “the control effect against the weed can be observed”; `CN(C)c1nc(=O)n(C2CCCCC2)c(=O)n1C` [hexazinone]: “the control effect against the weed can be observed”.
Turning to `Cc1cnc(C2=NC(=O)C(C)(C(C)C)N2)c(C(=O)O)c1` (centres unmarked) [imazapic], the herbicidal efficacy entry is on record as “the control effect against the weed can be observed”.
Regarding `COC(=O)c1ccc(I)cc1S(=O)(=O)[N-]C(=O)Nc1nc(C)nc(OC)n1.[Na+]` [iodosulfuron-methyl-sodium], the herbicidal efficacy entry is on record as “the control effect against the weed can be observed”.
Still for that read-out and setting: as for `CS(=O)(=O)c1cc(C(F)(F)F)ccc1C(=O)c1cnoc1C1CC1` [isoxaflutole], the entry is “the control effect against the weed can be observed”; as for `CS(=O)(=O)c1ccc(C(=O)C2C(=O)CCCC2=O)c([N+](=O)[O-])c1` [mesotrione], “the control effect against the weed can be observed”.
For `CCc1cccc(C)c1N(C(=O)CCl)C(C)COC` (centres unmarked) [metolachlor], the herbicidal efficacy result is listed as “the control effect against the weed can be observed”.
With `CSc1nnc(C(C)(C)C)c(=O)n1N` [metribuzin], the herbicidal efficacy result is on record as “the control effect against the weed can be observed”.
Turning to `CCC(CC)Nc1c([N+](=O)[O-])cc(C)c(C)c1[N+](=O)[O-]` [pendimethalin], the herbicidal efficacy entry is “the control effect against the weed can be observed”.
Take `CCNc1nc(Cl)nc(NCC)n1` [simazine]: the herbicidal efficacy entry is “the control effect against the weed can be observed”.
On the same count and under the same terms, as for `CNC(=O)N(C)c1nnc(C(C)(C)C)s1` [tebuthiuron], the entry is “the control effect against the weed can be observed”; as for `COc1cc(OC)nc(NC(=O)[N-]S(=O)(=O)c2ncccc2OCC(F)(F)F)n1.[Na+]` [trifloxysulfuron-sodium], “the control effect against the weed can be observed”.
Still for that read-out and setting: next, `CCCN(CCC)c1c([N+](=O)[O-])cc(C(F)(F)F)cc1[N+](=O)[O-]` [trifluralin]: “the control effect against the weed can be observed”; bicyclopyrone: “the control effect against the weed can be observed”.
